Columns and labels:
[1] = molecular target: T1, ABL1(M351T)-phosphorylated (Homo sapiens, UniProt P00519, M351T); assay: KinomeScan; type: binding; details: read-out: % Control
T1 construct: purchased DiscoveRx

[2] = molecular target: T2, EPHA8 (Homo sapiens, UniProt P29322); assay: KinomeScan; type: binding; details: read-out: % Control
T2 construct: purchased DiscoveRx (Fremont, CA)

[3] = molecular target: T3, OPRK1 (Homo sapiens, UniProt P41145); assay: GPCR Profiler; type: cell-based
T3 construct: host or cells: Chem-1 cells expressing Gα15

[4] = molecular target: T4, MERTK (Homo sapiens, UniProt Q12866); assay: KinomeScan; type: binding; details: read-out: % Control
T4 construct: purchased DiscoveRx (Fremont, CA)

[5] = molecular target: T5, PRKD1 (Homo sapiens, UniProt Q15139); assay: KinomeScan; type: binding; details: read-out: % Control
T5 construct: purchased DiscoveRx (Fremont, CA)

[6] = molecular target: T6, IRAK4 (Homo sapiens, UniProt Q9NWZ3); assay: KinomeScan; type: binding; details: read-out: % Control
T6 construct: purchased DiscoveRx (Fremont, CA)

[7] = molecular target: T7, MEK6 (Homo sapiens, UniProt P52564); assay: KinomeScan; type: binding; details: read-out: % Control
T7 construct: purchased DiscoveRx (Fremont, CA)

[8] = molecular target: T8, PLK4 (Homo sapiens, UniProt O00444); assay: KinomeScan; type: binding; details: read-out: % Control
T8 construct: purchased DiscoveRx (Fremont, CA)

[9] = molecular target: T9, BRSK1 (Homo sapiens, UniProt Q8TDC3); assay: KinomeScan; type: binding; details: read-out: % Control
T9 construct: purchased DiscoveRx (KinomeScan service)

[10] = molecular target: T10, Ghrelin (Homo sapiens, UniProt Q92847); assay: GPCR Profiler; type: cell-based
T10 construct: host or cells: Chem-1 cells expressing Gα15

[11] = molecular target: T11, MAP4K3 (Homo sapiens, UniProt Q8IVH8); assay: KinomeScan; type: binding; details: read-out: % Control
T11 construct: purchased DiscoveRx (Fremont, CA)

[12] = molecular target: T12, MYO3A (Homo sapiens, UniProt Q8NEV4); assay: KinomeScan; type: binding; details: read-out: % Control
T12 construct: purchased DiscoveRx

[13] = molecular target: T13, ABL1(Q252H)-phosphorylated (Homo sapiens, UniProt P00519, Q252H); assay: KinomeScan; type: binding; details: read-out: % Control
T13 construct: purchased DiscoveRx

[14] = molecular target: T14, PHKG2 (Homo sapiens, UniProt P15735); assay: KinomeScan; type: binding; details: read-out: % Control
T14 construct: purchased DiscoveRx (Fremont, CA)

[15] = molecular target: T15, PRKD2 (Homo sapiens, UniProt Q9BZL6); assay: KinomeScan; type: binding; details: read-out: % Control
T15 construct: purchased DiscoveRx (Fremont, CA)

[16] = test system: FLT3(ITD); assay: KinomeScan; type: binding; details: 10 uM
[17] = molecular target: T16, MC5 (Homo sapiens, UniProt P33032); assay: GPCR Profiler; type: cell-based
T16 construct: host or cells: Chem-1 cells with promiscuous Gα15

[18] = test system: HEK293; assay: Liperfluo lipid peroxidation, HEK293; type: cell-based, human
Method: Cells were plated on a 100 mm cell culture dish (CELLTREAT Scientific Products) in 10 mls of DMEM with high glucose, GlutaMAX, HEPES, Penicillin-Streptomycin (ThermoFisher™) and 10% FBS. Cells were incubated overnight at 37° C. in 5% CO2. Media were then replaced with […] fresh media with DMSO, OGM2, or Erastin (APExBIO Technology™) and the cells incubated for 3 days. On the third day, 3 mL fresh media with 2.5 μM Liperfluo™ (Dojindo Molecular Technologies™, Inc.) resuspended in DMSO was added and cells were incubated at 37° C. in 5% CO2 for 1 hour. Cells were subsequently trypsinized for 5 minutes, pelleted by centrifugation, and resuspended in cell sorting media (1% BSA and 1 mM EDTA in PBS pH 7.4). Ten thousand events were recorded on a BD LSR II and the data processed using the FlowJo™ software.

[19] = test system: patient derived GBM lines; assay: qPCR of ferroptosis markers; type: cell-based, human; details: 3 days
Excerpt: cDNAs were generated using High-Capacity cDNA Reverse Transcription Kit with RNase Inhibitor (ThermoFisher, […]). Samples were run on a Quant Studio 5 real-time PCR system (Applied Biosystems™) with TaqMan™ Universal Master Mix II, with UNG (ThermoFisher, 4440042). Primers used were GAPDH: Hs02786624g1, GPR68: Hs00268858s1, ATF4: Hs00909569_g1, CHAC1: Hs00225520_m1, SLC7A11: Hs00921938_m1, HMOX1: Hs01110250_m1, TFRC: Hs00951083_m1.
Separate biological replicates of pdx and neurosphere cells treated with OGM for 3 days were generated. RNA was isolated, cDNA generated and qPCR was conducted on select key markers of ferroptosis (ATF4. CHAC1, HMOX1, TFRC, and SLC7A11) that were seen as dysregulated in RNAseq.

T3 sequence (P41145 whole entry, species assumed): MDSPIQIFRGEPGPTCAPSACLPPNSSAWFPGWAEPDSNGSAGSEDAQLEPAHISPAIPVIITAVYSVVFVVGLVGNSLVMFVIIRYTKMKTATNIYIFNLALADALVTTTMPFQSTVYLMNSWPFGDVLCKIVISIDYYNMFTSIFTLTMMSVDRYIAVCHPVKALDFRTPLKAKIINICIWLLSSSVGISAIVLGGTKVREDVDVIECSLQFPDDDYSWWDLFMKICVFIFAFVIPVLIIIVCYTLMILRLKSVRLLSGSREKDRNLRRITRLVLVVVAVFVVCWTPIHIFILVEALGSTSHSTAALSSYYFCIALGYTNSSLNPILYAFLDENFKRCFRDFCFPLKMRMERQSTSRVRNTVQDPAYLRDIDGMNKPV
T16 sequence (P33032 whole entry): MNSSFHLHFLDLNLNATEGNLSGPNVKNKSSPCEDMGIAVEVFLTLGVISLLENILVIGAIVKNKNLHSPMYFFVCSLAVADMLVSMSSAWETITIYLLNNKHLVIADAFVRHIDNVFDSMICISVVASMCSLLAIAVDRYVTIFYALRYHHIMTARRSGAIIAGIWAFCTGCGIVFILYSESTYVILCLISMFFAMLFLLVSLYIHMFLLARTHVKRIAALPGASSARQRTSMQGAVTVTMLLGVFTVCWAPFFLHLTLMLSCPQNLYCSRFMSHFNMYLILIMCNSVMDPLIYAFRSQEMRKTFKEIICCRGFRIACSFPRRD
T10 sequence (Q92847 whole entry): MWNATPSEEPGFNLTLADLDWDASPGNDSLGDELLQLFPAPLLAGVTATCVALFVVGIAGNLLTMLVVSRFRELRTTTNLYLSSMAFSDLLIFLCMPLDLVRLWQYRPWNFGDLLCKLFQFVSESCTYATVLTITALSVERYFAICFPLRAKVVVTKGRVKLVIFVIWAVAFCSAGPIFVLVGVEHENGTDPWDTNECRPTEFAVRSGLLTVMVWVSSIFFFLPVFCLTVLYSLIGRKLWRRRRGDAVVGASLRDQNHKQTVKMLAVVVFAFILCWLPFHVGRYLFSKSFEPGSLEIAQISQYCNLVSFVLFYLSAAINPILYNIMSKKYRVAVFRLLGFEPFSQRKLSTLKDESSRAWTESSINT
T11 sequence (Q8IVH8 whole entry): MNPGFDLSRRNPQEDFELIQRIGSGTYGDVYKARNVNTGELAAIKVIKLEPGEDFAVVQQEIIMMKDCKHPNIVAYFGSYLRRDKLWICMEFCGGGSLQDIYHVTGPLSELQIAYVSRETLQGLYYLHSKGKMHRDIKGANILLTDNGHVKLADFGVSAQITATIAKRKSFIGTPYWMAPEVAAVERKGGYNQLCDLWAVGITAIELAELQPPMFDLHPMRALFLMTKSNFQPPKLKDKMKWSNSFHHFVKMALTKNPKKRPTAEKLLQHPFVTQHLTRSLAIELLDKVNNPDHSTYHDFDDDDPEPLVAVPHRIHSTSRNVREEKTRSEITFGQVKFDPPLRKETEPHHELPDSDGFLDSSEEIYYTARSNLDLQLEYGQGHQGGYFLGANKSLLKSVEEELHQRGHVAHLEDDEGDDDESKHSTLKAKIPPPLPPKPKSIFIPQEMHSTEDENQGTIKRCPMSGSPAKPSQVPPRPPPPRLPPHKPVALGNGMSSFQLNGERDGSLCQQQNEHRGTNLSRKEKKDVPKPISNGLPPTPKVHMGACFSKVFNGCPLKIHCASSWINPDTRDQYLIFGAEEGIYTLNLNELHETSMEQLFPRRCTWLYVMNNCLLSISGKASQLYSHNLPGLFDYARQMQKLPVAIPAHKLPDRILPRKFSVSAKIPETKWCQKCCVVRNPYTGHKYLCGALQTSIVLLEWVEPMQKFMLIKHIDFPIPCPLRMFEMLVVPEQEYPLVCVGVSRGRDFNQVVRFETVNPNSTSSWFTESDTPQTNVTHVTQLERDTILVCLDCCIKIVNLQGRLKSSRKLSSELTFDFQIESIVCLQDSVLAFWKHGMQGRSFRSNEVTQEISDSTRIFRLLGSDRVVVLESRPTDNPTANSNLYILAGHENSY
T5 sequence (Q15139 whole entry): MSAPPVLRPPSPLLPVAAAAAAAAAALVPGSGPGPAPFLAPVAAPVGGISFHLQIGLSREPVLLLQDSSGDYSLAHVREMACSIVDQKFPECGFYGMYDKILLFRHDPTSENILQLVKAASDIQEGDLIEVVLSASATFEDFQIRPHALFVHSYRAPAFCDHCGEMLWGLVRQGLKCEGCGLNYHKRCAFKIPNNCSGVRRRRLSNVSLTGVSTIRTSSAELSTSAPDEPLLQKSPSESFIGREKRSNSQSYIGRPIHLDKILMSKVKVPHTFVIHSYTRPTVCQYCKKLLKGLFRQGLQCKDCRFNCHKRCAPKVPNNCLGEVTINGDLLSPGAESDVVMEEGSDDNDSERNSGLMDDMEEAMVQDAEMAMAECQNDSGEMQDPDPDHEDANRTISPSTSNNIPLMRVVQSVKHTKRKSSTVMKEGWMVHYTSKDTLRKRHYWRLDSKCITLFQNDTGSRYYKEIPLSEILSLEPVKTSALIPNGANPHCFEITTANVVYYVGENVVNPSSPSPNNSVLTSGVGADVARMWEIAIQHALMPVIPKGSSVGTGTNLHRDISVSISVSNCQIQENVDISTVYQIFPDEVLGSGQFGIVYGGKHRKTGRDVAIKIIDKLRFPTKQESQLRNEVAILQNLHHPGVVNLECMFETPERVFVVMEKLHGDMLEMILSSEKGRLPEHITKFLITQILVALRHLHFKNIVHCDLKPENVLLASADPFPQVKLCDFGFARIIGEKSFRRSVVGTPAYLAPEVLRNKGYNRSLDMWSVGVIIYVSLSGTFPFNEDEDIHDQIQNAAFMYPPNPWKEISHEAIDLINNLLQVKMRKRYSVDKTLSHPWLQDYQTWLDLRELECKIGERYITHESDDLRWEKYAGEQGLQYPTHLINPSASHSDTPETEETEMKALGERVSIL
T12 sequence (Q8NEV4 whole entry): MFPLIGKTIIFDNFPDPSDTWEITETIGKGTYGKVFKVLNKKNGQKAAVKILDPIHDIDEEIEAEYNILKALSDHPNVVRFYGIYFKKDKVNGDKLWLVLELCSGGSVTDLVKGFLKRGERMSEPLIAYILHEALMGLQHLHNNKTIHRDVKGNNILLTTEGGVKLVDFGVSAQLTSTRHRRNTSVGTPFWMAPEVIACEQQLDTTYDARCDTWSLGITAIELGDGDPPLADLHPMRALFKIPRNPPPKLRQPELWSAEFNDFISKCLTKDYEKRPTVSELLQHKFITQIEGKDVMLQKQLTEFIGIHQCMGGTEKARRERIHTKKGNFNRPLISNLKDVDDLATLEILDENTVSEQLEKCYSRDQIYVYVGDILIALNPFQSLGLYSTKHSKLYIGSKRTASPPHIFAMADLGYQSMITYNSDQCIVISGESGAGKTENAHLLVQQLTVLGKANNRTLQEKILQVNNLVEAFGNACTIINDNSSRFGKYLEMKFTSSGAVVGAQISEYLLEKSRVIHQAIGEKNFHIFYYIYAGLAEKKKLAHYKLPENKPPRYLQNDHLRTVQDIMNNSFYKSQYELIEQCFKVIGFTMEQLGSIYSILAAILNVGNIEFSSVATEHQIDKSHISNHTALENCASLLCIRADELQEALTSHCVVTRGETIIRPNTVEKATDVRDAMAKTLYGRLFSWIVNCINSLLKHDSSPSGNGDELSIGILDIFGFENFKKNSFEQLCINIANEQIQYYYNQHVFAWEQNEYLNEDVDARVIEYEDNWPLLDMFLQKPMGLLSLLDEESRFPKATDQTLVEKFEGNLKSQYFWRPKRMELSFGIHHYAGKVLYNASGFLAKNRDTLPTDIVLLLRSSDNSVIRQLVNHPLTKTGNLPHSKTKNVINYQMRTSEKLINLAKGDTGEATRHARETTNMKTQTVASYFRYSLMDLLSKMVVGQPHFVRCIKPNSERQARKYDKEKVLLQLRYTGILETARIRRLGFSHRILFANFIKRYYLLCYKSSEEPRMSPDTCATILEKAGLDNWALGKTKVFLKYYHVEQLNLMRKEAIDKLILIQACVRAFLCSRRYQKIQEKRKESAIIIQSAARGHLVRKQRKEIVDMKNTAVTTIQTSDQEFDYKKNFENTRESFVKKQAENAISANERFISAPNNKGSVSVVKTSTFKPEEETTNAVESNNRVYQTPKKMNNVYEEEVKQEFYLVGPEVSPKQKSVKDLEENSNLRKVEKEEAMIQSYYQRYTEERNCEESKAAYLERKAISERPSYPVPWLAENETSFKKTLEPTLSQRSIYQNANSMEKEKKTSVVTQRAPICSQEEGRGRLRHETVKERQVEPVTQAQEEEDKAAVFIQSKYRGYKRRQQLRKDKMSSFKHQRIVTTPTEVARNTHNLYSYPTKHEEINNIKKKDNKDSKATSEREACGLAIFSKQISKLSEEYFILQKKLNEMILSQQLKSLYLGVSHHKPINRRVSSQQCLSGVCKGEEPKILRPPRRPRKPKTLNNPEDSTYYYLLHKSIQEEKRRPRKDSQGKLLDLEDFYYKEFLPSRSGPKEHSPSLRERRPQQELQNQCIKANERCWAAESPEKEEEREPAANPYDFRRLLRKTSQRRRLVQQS
T14 sequence (P15735 whole entry): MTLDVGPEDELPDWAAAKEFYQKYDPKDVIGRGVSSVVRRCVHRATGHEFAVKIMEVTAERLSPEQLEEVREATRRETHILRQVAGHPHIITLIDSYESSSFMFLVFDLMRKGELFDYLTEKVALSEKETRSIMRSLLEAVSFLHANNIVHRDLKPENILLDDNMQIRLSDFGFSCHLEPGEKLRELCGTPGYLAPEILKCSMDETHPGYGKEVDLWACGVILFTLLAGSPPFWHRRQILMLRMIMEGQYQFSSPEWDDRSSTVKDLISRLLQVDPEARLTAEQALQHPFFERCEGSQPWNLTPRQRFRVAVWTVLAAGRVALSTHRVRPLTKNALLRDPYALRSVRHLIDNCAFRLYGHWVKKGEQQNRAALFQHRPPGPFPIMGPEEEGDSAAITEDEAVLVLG

Question: How did the remaining binding at 10 µM [1] turn out when `CCc1ccc2c(c1)C1(NN=C(c3cccc4ccccc34)S1)C(=O)N2` (stereo not shown) [OGM1, 5-ethyl-5′-naphthalen-1-ylspiro[1H-indole-3,2′-3H-1,3,4-thiadiazole]-2-one] was run?
Answer: Its remaining binding at 10 µM is 84%.

Question: And the remaining binding at 10 µM [2]?
Answer: The remaining binding at 10 µM was 100%.

Question: What about the Antagonism ([3]; 10 uM) of the same compound?
Answer: The Antagonism was −8.1.

Question: And the Agonism ([3]; 12.5 uM)?
Answer: The Agonism was 4.3.

Question: And the remaining binding at 10 µM [4]?
Answer: Its remaining binding at 10 µM is 80%.

Question: And the remaining binding at 10 µM [5]?
Answer: The remaining binding at 10 µM was 100%.

Question: What about the remaining binding at 10 µM [6] of the same compound?
Answer: Its remaining binding at 10 µM is 88%.

Question: What about the remaining binding at 10 µM [7] of the same compound?
Answer: The remaining binding at 10 µM was 76%.

Question: And the remaining binding at 10 µM [8]?
Answer: The remaining binding at 10 µM was 71%.

Question: And the remaining binding at 10 µM [9]?
Answer: Its remaining binding at 10 µM is 100%.

Question: And the Antagonism ([10]; 10 uM)?
Answer: Its Antagonism is −6.1.

Question: And the Agonism ([10]; 12.5 uM)?
Answer: Its Agonism is 0.3.

Question: What about the remaining binding at 10 µM [11] of the same compound?
Answer: Its remaining binding at 10 µM is 100%.

Question: What about the remaining binding at 10 µM [12] of the same compound?
Answer: The remaining binding at 10 µM was 95%.

Question: What about the remaining binding at 10 µM [13] of the same compound?
Answer: The remaining binding at 10 µM was 94%.

Question: And the remaining binding at 10 µM [14]?
Answer: The remaining binding at 10 µM was 71%.

Question: And the remaining binding at 10 µM [15]?
Answer: Its remaining binding at 10 µM is 87%.

Question: What about the “% Control” value [16] of the same compound?
Answer: The value was 100%.

Question: And the Antagonism ([17]; 10 uM)?
Answer: Its Antagonism is 13.9.

Question: And the Agonism ([17]; 12.5 uM)?
Answer: Its Agonism is 0.9.

Question: `CCc1ccc2c(c1)C1(NN=C(c3ccccc3)S1)C(=O)N2` (stereo not shown) [OGM2] was tested. Which lipid peroxidation [18] did it give?
Answer: Its lipid peroxidation is “did not induce lipid peroxidation”.

Question: And the “expression of ATF4, CHAC1, HMOX1, TFRC, SLC7A11” value [19]?
Answer: Its value is “induced key markers of ferroptosis”.

From patent US20240327364A1, “THERAPEUTIC TARGETING OF GPR68 TO INDUCE FERROPTOSIS” (University Of Maryland, Baltimore, priority 2023, published 2024)
